Patent US9408887B2, “Intermittent dosing regimen for treating breast cancer” (New York University, priority 2011, dated 2016)
“Also recorded” adds a separate entry of the source. Read-outs that look alike come from different tables or passages of the source. Starred links: 1 amine or outer side, 2 acyl side, 3 side chain; linkers in the order of their positions; H or OH if unused. Non-standard residues stand in square brackets, D forms with d. Residues, ends and D or L forms follow the SMILES beside them. Groups on a side chain read outwards from the residue. *: point of attachment. Ethylenediamine = C(CN[*:2])N[*:1]; Hyp = O=C(O)[C@@H]1C[C@@H](O)CN1; Phg = N[C@H](C(=O)O)c1ccccc1; CO = O=C([*:1])[*:2]; Bn = c1ccc(C*)cc1

How the values were obtained:
[1] = system: somatostatin receptors; details: of 5 subtypes; cited from earlier work
[2] = system: Brca1LoxP/Brca1LoxP mice; test: LoxP mammary phenotype (duct width, hyperplasia, HANs) after IGF-I inhibitor treatment; assay type: in vivo, mouse; details: for duct width, glandular hyperplasia and hyperplastic alveolar nodules (in words): symptomatic LoxP mice, after treatment
Procedure: The present inventor and colleagues have previously shown that growth hormone induced IGF-I activity is essential for mammary development and also estrogen and progesterone action. To determine whether inhibition of IGF-I action would prevent, reverse or delay the abnormalities associated with BRCA deficiency observed in LoxP animals, symptomatic animals were treated with three different compounds that inhibit IGF-I action.
Women with BRCA1 mutations are at high risk for developing breast cancer. As described above, an animal model of Brca1 deficiency (Brca1^LoxP/Brca1^LoxP mouse model system, also referred to herein as the LoxP mouse model system) was developed in which the mammary glands are abnormally developed and which presents with a phenotype similar to that observed in women with BRCA1 mutations. The Brca1loxP/loxP phenotype is characterized by ductal dilatation and epithelial hyperplasia. In earlier studies, 4 month old Brca1loxP/loxP mice were treated with pasireotide, PQ401 (a small molecule kinase inhibitor of the IGF-I receptor), or vehicle for 7 days. At the end of that period, mammary development in drug- vs. vehicle-treated animals was compared.

[3] = system: breast cancer; details: women with hyperplastic lesions of the breast; clinical evidence; cited from earlier work
[4] = system: cells with more than 1 or 2 centrosomes per cell; test: Centrosome index by γ-tubulin immunolocalization in mammary glands of LoxP mice (genomic instability); assay type: in vivo, mouse; details: 7 days of treatment
Text: Evidence directed to this point is presented in FIG. 2A, wherein immunolocalization of γ-tubulin (green) is used to locate centrosomes in the mammary glands of wildtype (WT) or Brca1 deficient (Brca1^LoxP/Brca1^LoxP) mice. Nuclei (blue) are counterstained. As shown therein, 1 or 2 centrosomes per cell are observed in wildtype mice, reflecting normal, control numbers of centrosomes in individual cells.
Nuclei (blue) are counterstained. In wildtype mice, 1 or 2 centrosomes per cell are observed, reflecting normal, control numbers of centrosomes in individual cells.

[5] = system: Ki67 staining (cell proliferation); test: Cell proliferation by Ki67 immunohistochemistry in mammary glands of LoxP mice; assay type: in vivo, mouse; details: for cell proliferation as assessed by Ki67 immunohistochemistry: after treatment
[6] = system: PR/p63 double positive cells; test: Simultaneous immunofluorescence for PR and p63 in mammary glands of Brca1LoxP/Brca1LoxP (C57 loxP) mice; assay type: in vivo, mouse; details: 7 days of treatment; for frequency of PR/p63 double positive cells (in words): LoxP mice; for frequency of PR/p63 double positive cells: C57 loxP mice, untreated loxP 22.5±0.8%, wildtype 3.8±0.4%
Procedure: Simultaneous Immunofluorescence for PR and p63: 3-5 μm paraffin embedded tissue sections from C57/b and C57 loxP mice were stained using antibodies against PR and p63 (Lab Vision). Briefly, samples were deparaffinized by 60° C. heating following by xylene immersion for 30 min. Antigens were retrieved by heating 10 min 95° C. followed by 10 min 85° C. in citric acid pH 6.0 (Vector). […] Next day, specific secondary goat anti mouse Alexa Fluor 488 and donkey anti rabbit Alexa Fluor 594 antibodies (Invitrogen) were used to a final concentration of 1:200 to detect the primary antibodies, by incubating the samples for 1 hour at room temperature. Finally, samples were counterstained using DAPI at 0.02 mg/ml and mounted with Vectashield (Vector). Samples were imaged using a 40× objective with 0.95 numerical aperture Zeiss Plan-Apochromat objective on a Zeiss Axiovert equipped with epifluorescence. The number of epithelial cells positive for PR, p63 or both, was then calculated as the relative frequency of positive cells per epithelial cells per image. Finally, frequencies of positive cells between animal groups were statistically analyzed with the chi-square distribution. A probability of p<0.05 was considered statistically significant. Women with BRCA1 mutations are at high risk for developing breast cancer. As described above, an animal model of Brca1 deficiency (Brca1^LoxP/Brca1^LoxP mouse model system, also referred to herein as the LoxP mouse model system) was developed in which the mammary glands are abnormally developed and which presents with a phenotype similar to that observed in women with BRCA1 mutations. The Brca1loxP/loxP phenotype is characterized by ductal dilatation and epithelial hyperplasia. In earlier studies, 4 month old Brca1loxP/loxP mice were treated with pasireotide, PQ401 (a small molecule kinase inhibitor of the IGF-I receptor), or vehicle for 7 days. At the end of that period, mammary development in drug- vs. vehicle-treated animals was compared.

[7] = humans, cited from earlier work
[8] = target: SSTR-3 (Homo sapiens, UniProt P32745); details: cited from earlier work
[9] = system: mammary gland development; details: rats; cited from earlier work
[10] = target: SSTR-5 (Homo sapiens, UniProt P35346); details: cited from earlier work
[11] = Serum glucose and insulin levels during and post SOM230 treatment in patients; details: human, in vivo
[12] = rats; Bruns et al. 2002, van der Hoek et al. 2004; cited from earlier work
[13] = target: SSTR-2 (Homo sapiens, UniProt P30874); details: cited from earlier work
[14] = Phase III, Cushing's disease; cited from earlier work
[15] = target: SSTR-1 (Homo sapiens, UniProt P30872); details: cited from earlier work
[16] = 13 patients, 30 days after stopping SOM230

SSTR-5, sequence (P35346 whole entry, species assumed): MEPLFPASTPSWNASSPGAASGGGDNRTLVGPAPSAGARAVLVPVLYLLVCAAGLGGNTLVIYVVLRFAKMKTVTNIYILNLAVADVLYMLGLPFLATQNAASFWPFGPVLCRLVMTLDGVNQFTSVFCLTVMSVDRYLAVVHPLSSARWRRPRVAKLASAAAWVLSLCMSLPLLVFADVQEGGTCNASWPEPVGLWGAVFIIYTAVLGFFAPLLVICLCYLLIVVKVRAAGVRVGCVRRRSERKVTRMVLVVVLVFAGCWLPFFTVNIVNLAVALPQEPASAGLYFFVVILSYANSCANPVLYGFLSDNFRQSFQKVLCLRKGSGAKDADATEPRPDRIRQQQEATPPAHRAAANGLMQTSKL
SSTR-1, sequence (P30872 whole entry, species assumed): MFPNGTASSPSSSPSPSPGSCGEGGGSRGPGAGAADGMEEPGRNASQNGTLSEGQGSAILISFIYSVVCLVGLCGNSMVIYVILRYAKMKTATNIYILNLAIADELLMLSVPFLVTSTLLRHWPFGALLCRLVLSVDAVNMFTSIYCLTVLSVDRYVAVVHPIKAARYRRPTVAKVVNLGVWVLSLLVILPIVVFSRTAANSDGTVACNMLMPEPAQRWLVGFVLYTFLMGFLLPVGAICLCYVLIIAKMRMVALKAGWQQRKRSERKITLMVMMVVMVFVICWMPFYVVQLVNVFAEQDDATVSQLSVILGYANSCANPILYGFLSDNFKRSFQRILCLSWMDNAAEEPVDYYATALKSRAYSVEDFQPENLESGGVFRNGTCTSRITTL
SSTR-3, sequence (P32745 whole entry, species assumed): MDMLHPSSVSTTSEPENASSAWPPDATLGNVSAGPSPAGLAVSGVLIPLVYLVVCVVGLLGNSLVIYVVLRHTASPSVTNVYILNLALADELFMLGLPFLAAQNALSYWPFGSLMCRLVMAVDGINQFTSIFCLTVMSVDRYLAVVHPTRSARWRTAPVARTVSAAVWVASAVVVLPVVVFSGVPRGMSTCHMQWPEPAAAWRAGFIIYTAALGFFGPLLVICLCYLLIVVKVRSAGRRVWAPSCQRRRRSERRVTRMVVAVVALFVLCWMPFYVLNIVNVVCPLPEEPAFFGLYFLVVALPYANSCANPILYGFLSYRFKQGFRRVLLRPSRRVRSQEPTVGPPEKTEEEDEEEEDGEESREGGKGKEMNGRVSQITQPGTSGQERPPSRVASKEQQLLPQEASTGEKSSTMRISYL
SSTR-2, sequence (P30874 whole entry, species assumed): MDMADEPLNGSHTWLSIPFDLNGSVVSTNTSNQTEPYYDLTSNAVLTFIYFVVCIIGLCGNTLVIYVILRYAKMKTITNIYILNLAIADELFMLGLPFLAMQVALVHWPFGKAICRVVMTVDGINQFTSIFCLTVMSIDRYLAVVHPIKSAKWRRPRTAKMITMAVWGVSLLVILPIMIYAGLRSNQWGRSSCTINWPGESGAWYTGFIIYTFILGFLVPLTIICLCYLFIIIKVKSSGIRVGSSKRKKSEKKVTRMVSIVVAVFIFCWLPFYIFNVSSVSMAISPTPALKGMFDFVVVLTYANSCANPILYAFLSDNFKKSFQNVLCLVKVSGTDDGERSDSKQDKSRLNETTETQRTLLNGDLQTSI

Structure (SMILES): C[C@H](N)C(=O)NCC(=O)N[C@H]1CSSC[C@@H](C(=O)O)NC(=O)[C@H](CO)NC(=O)[C@H]([C@@H](C)O)NC(=O)[C@H](Cc2ccccc2)NC(=O)[C@H]([C@@H](C)O)NC(=O)C(CCCCN)NC(=O)[C@H](Cc2c[nH]c3ccccc23)NC(=O)[C@H](Cc2ccccc2)NC(=O)[C@H](Cc2ccccc2)NC(=O)[C@H](CC(N)=O)NC(=O)[C@H](CCCCN)NC1=O (some centres unmarked) [SS14]
- somatostatin receptors bound [1]: all of the somatostatin receptors
- number of HANs ([2]; nine month old LoxP animals): impressive reduction
- duct width, glandular hyperplasia and hyperplastic alveolar nodules (in words) [2]: reduces duct width, glandular hyperplasia and hyperplastic alveolar nodules

Structure (SMILES): CC/C(=C(\c1ccccc1)c1ccc(OCCN(C)C)cc1)c1ccccc1 [tamoxifen]
- prevention of the development of cancer [3]: about 50%

Structure (SMILES): COc1ccc(Cl)cc1NC(=O)Nc1cc(C)nc2ccccc12 [PQ401]
- centrosome index / frequency of cells with more than 1 or 2 centrosomes (in words) [4]: significantly reduced
- duct width, glandular hyperplasia and hyperplastic alveolar nodules (in words) [2]: reduces duct width, glandular hyperplasia and hyperplastic alveolar nodules
- cell proliferation as assessed by Ki67 immunohistochemistry [5]: significantly reduce cell proliferation
- frequency of PR/p63 double positive cells (in words) [6]: significantly reduce; also recorded: dramatically reduced

Structure (SMILES): NCCCC[C@@H]1NC(=O)[C@@H](Cc2c[nH]c3ccccc23)NC(=O)[C@H](c2ccccc2)NC(=O)[C@@H]2C[C@@H](OC(=O)NCCN)CN2C(=O)[C@H](Cc2ccccc2)NC(=O)[C@H](Cc2ccc(OCc3ccccc3)cc2)NC1=O [SOM230] (cyclo(F[Hyp]([CO-Ethylenediamine])[Phg][dW]KY(Bn)))
- centrosome index / frequency of cells with more than 1 or 2 centrosomes (in words) [4]: significantly reduced
- somatostatin receptors bound [1]: 4 of the 5
- abnormal ductal dilatation ([2]; LoxP mice): significant effect on inhibiting
- formation of HANs ([2]; LoxP mice): preventing formation of HANs
- duct width at 21 days post-treatment (in words) ([2]; LoxP mice, SOM230 treatment then 21 days rest): maintained
- time clinical benefit (reduction in PR/p63+ progenitor cells, ductal width and/or proliferative cells) is maintained into the rest period ([2]; LoxP mice, after end of administration): at least 20 days
- duct width, glandular hyperplasia and hyperplastic alveolar nodules (in words) [2]: reduces duct width
- duct width, glandular hyperplasia and hyperplastic alveolar nodules (in words) ([2]; listed as Pasireotide): reduces duct width, glandular hyperplasia and hyperplastic alveolar nodules
- terminal half life ([7]; Bruns et al. 2002, van der Hoek et al. 2004): 27 h
- plasma half life ([7]; Ma et al. 2005): approximately 12 hours
- affinity for SSTR-3 [8]: high binding affinity
- IRS-1 phosphorylation in the mammary gland [9]: reduction
- growth hormone secretion from the pituitary [9]: inhibitory effect
- mammary gland development [9]: prevents mammary gland development
- affinity for SSTR-5 [10]: high binding affinity
- cell proliferation as assessed by Ki67 immunohistochemistry [5]: significantly reduce cell proliferation
- cell proliferation (Ki67 staining) at 21 days post-treatment ([5]; treated vs untreated, 21 days into rest period): continues to be inhibited
- normalization of finger stick glucose after stopping medication (in words) [11]: almost immediately
- terminal half life [12]: 27 h
- affinity for SSTR-2 [13]: high binding affinity
- serum glucose at 60 days after discontinuation (13 patients): normal
- serum insulin at 60 days after discontinuation (13 patients): normal
- time by which serum glucose and insulin levels normalize after SOM230 administration ceases (13 patients): ≤ 30 days
- mean glucose [16]: 95
- serum insulin [16]: increased
- women tested with finger stick glucoses of less than 92 mg/dL (by 4 days after cessation of SOM230 administration): 6 of 8
- patients with hyperglycemia (patients diagnosed with or pre-disposed to breast cancer treated with SOM230): 100%
- 30 day post-treatment glucose of the patient ultimately determined to be diabetic (single patient, initial blood sugar 100): 117
- HbA1C level [14]: increased
- cholelithiasis [14]: 30%
- diarrhea [14]: 58%
- fasting plasma glucose level [14]: increased
- hyperglycemia [14]: 40%
- nausea [14]: 52%
- patients with a hyperglycemia-related adverse event [14]: 73%
- affinity for SSTR-1 [15]: high binding affinity
- frequency of PR/p63 double positive cells [6]: 5%
- frequency of PR/p63 double positive cells ([6]; listed as pasireotide): 4.8±1.2%
- frequency of PR/p63 double positive cells (in words) [6]: significantly reduce; also recorded: dramatically reduced
